Data published in patent US10722516B2, “Use of landiolol hydrochloride in the long-term treatment of tachyarrhythmias” (AOP Orphan Pharmaceuticals AG, priority 2013, dated 2020).
“Also recorded” adds a separate entry of the source. Where a name gives a salt, the structure may show the parent alone.

Assays:
healthy volunteers = experiment: 24 h long-term infusion study, AOP LDLL600 against esmolol: heart rate; type: in vivo, human; conditions: for heart rate: Table 1
Procedure: A single centre prospective, randomized, double blind, crossover, pharmacokinetic, safety and tolerability study to compare long-term infusion administration of AOP LDLL600 against esmolol in healthy volunteers was performed.
Landiolol hydrochloride lyophilized (LDLL600) comprises 600 mg landiolol hydrochloride, 600 mg mannitol, pH 6.5. The primary packing of LDLL600 is 50 ml vial, the reconstitution volume is 50 ml and the final product concentration is 12 mg/mL landiolol HCl.
12 subjects were administered AOP LDLL600 or Esmolol (Brevibloc, 2500 mg/250 ml) in 1:1 ratio in double-blind, randomized, cross-over setting. PK, systemic cardiovascular and local tolerability and safety of the 24 h-long term infusions of three dose levels of both IMPs during each treatment period were assessed.
Landiolol was infused over 24 h in a dose of 10 μg/KG/min (2 hrs), followed by 20 μg/KG/min (2 hrs), followed by 40 μg/KG/min for 20 hrs.
Dosing algorithm was body weight divided by 20, 10 and 5 in ml/h giving 10, 20 and 40 μg/KG/min at a concentration of 12 mg/ml. No severe adverse drug reactions, mild local reactions, 1 severe local reaction (Esmolol High Dose).
Landiolol was infused over 24 h in a dose of 10, 20 and 40 μg/KG/min, i.e. 10 μg/KG/min landiolol were administered for 2 hrs, followed by 2 hrs administration of 20 μg/KG/min and further followed by 20 hrs administration of 40 μg/KG/min.
Post-infusion follow up measurements were performed immediately after 20 hrs administration study, i.e. 2, 4 min etc. after stop of landiolol administration.

[1] = after discontinuing the drug; cited from earlier work
[2] = LD infusion (landiolol 10, esmolol 50 μg/kg/min), 3 min
[3] = LD infusion (landiolol 10, esmolol 50 μg/kg/min), 4 min
[4] = LD infusion (landiolol 10, esmolol 50 μg/kg/min), 6 min
[5] = LD infusion (landiolol 10, esmolol 50 μg/kg/min), 8 min
[6] = LD infusion (landiolol 10, esmolol 50 μg/kg/min), 12 min
[7] = LD infusion (landiolol 10, esmolol 50 μg/kg/min), 16 min
[8] = LD infusion (landiolol 10, esmolol 50 μg/kg/min), 20 min
[9] = LD infusion (landiolol 10, esmolol 50 μg/kg/min), 30 min
[10] = LD infusion (landiolol 10, esmolol 50 μg/kg/min), 60 min
[11] = LD infusion (landiolol 10, esmolol 50 μg/kg/min), 90 min
[12] = LD infusion (landiolol 10, esmolol 50 μg/kg/min), 2 h
[13] = MD infusion (landiolol 20, esmolol 100 μg/kg/min, after 2 h LD), 2 min
[14] = MD infusion (landiolol 20, esmolol 100 μg/kg/min, after 2 h LD), 3 min
[15] = MD infusion (landiolol 20, esmolol 100 μg/kg/min, after 2 h LD), 4 min
[16] = MD infusion (landiolol 20, esmolol 100 μg/kg/min, after 2 h LD), 6 min
[17] = MD infusion (landiolol 20, esmolol 100 μg/kg/min, after 2 h LD), 8 min
[18] = MD infusion (landiolol 20, esmolol 100 μg/kg/min, after 2 h LD), 16 min
[19] = MD infusion (landiolol 20, esmolol 100 μg/kg/min, after 2 h LD), 20 min
[20] = MD infusion (landiolol 20, esmolol 100 μg/kg/min, after 2 h LD), 30 min
[21] = MD infusion (landiolol 20, esmolol 100 μg/kg/min, after 2 h LD), 60 min
[22] = MD infusion (landiolol 20, esmolol 100 μg/kg/min, after 2 h LD), 90 min
[23] = MD infusion (landiolol 20, esmolol 100 μg/kg/min, after 2 h LD), 2 h

SMILES: COC(=O)CCc1ccc(OCC(O)CNC(C)C)cc1 (stereo not drawn) [Esmolol, Esmolol hydrochloride]
- change of heart rate from predose, Mean (SD) (healthy volunteers; [2]): −1.9 (5.34) beats per minute
- heart rate, Mean (SD) (healthy volunteers; [2]): 65.7 (4.91) beats per minute
- change of heart rate from predose, Mean (SD) (healthy volunteers; [3]): −2.1 (7.64) beats per minute
- heart rate, Mean (SD) (healthy volunteers; [3]): 65.6 (6.44) beats per minute
- change of heart rate from predose, Mean (SD) (healthy volunteers; [4]): −1.6 (5.96) beats per minute
- heart rate, Mean (SD) (healthy volunteers; [4]): 66.0 (4.52) beats per minute
- change of heart rate from predose, Mean (SD) (healthy volunteers; [5]): −2.1 (7.05) beats per minute
- heart rate, Mean (SD) (healthy volunteers; [5]): 65.5 (4.35) beats per minute
- change of heart rate from predose, Mean (SD) (healthy volunteers; [6]): −2.4 (6.77) beats per minute
- heart rate, Mean (SD) (healthy volunteers; [6]): 65.2 (4.74) beats per minute
- change of heart rate from predose, Mean (SD) (healthy volunteers; [7]): −2.3 (7.58) beats per minute
- heart rate, Mean (SD) (healthy volunteers; [7]): 65.4 (5.51) beats per minute
- change of heart rate from predose, Mean (SD) (healthy volunteers; [8]): −2.0 (9.49) beats per minute
- heart rate, Mean (SD) (healthy volunteers; [8]): 65.6 (7.07) beats per minute
- change of heart rate from predose, Mean (SD) (healthy volunteers; [9]): −5.1 (6.29) beats per minute
- heart rate, Mean (SD) (healthy volunteers; [9]): 62.6 (5.05) beats per minute
- change of heart rate from predose, Mean (SD) (healthy volunteers; [10]): −4.1 (8.00) beats per minute
- heart rate, Mean (SD) (healthy volunteers; [10]): 63.6 (4.67) beats per minute
- change of heart rate from predose, Mean (SD) (healthy volunteers; [11]): −3.5 (6.55) beats per minute
- heart rate, Mean (SD) (healthy volunteers; [11]): 64.1 (4.99) beats per minute
- change of heart rate from predose, Mean (SD) (healthy volunteers; [12]): −3.9 (7.12) beats per minute
- heart rate, Mean (SD) (healthy volunteers; [12]): 63.8 (4.89) beats per minute
- change of heart rate from predose, Mean (SD) (healthy volunteers; MD Predose (end of 2 h LD)): −3.9 (7.12) beats per minute
- heart rate, Mean (SD) (healthy volunteers; MD Predose (end of 2 h LD)): 63.8 (4.89) beats per minute
- change of heart rate from predose, Mean (SD) (healthy volunteers; [13]): −4.3 (10.36) beats per minute
- heart rate, Mean (SD) (healthy volunteers; [13]): 63.4 (7.88) beats per minute
- change of heart rate from predose, Mean (SD) (healthy volunteers; [14]): −5.1 (8.40) beats per minute
- heart rate, Mean (SD) (healthy volunteers; [14]): 62.6 (5.50) beats per minute
- change of heart rate from predose, Mean (SD) (healthy volunteers; [15]): −2.7 (8.96) beats per minute
- heart rate, Mean (SD) (healthy volunteers; [15]): 64.9 (9.04) beats per minute
- change of heart rate from predose, Mean (SD) (healthy volunteers; [16]): −3.8 (7.45) beats per minute
- heart rate, Mean (SD) (healthy volunteers; [16]): 63.9 (5.10) beats per minute
- change of heart rate from predose, Mean (SD) (healthy volunteers; [17]): −5.6 (7.54) beats per minute
- heart rate, Mean (SD) (healthy volunteers; [17]): 62.1 (4.46) beats per minute
- heart rate, Mean (SD) (healthy volunteers; MD infusion (landiolol 20, esmolol 100 μg/kg/min, after 2 h LD), 12 min): 61.8 (5.07) beats per minute
- change of heart rate from predose, Mean (SD) (healthy volunteers; [18]): −3.5 (7.14) beats per minute
- heart rate, Mean (SD) (healthy volunteers; [18]): 64.1 (5.02) beats per minute
- change of heart rate from predose, Mean (SD) (healthy volunteers; [19]): −5.0 (7.34) beats per minute
- heart rate, Mean (SD) (healthy volunteers; [19]): 62.6 (4.33) beats per minute
- change of heart rate from predose, Mean (SD) (healthy volunteers; [20]): −5.6 (8.20) beats per minute
- heart rate, Mean (SD) (healthy volunteers; [20]): 62.1 (5.00) beats per minute
- change of heart rate from predose, Mean (SD) (healthy volunteers; [21]): −1.4 (10.41) beats per minute
- heart rate, Mean (SD) (healthy volunteers; [21]): 66.2 (5.04) beats per minute
- change of heart rate from predose, Mean (SD) (healthy volunteers; [22]): −2.2 (8.59) beats per minute
- heart rate, Mean (SD) (healthy volunteers; [22]): 65.4 (6.17) beats per minute
- change of heart rate from predose, Mean (SD) (healthy volunteers; [23]): −3.9 (7.75) beats per minute
- heart rate, Mean (SD) (healthy volunteers; [23]): 63.7 (4.86) beats per minute
- heart rate, Mean (SD) (healthy volunteers; Predose (before first IMP administration)): 67.6 (7.87) beats per minute
- heart rate (healthy volunteers; Control (before administration)): 67 beats per minute
- heart rate (healthy volunteers; high dose (landiolol 40, esmolol 200 μg/kg/min), time 720 min): 67.9 beats per minute
- heart rate (healthy volunteers; high dose (landiolol 40, esmolol 200 μg/kg/min), time 1200 min): 67.9 beats per minute
- heart rate (healthy volunteers; low dose (landiolol 10, esmolol 50 μg/kg/min), time 12 min): 65.2 beats per minute
- heart rate (healthy volunteers; low dose (landiolol 10, esmolol 50 μg/kg/min), time 16 min): 65.4 beats per minute
- heart rate (healthy volunteers; low dose (landiolol 10, esmolol 50 μg/kg/min), time 30 min): 62.6 beats per minute
- heart rate (healthy volunteers; low dose (landiolol 10, esmolol 50 μg/kg/min), time 60 min): 63.6 beats per minute
- heart rate (healthy volunteers; low dose (landiolol 10, esmolol 50 μg/kg/min), time 120 min): 63.8 beats per minute
- heart rate (healthy volunteers; medium dose (landiolol 20, esmolol 100 μg/kg/min), time 240 min): 63.7 beats per minute
- heart rate (healthy volunteers; time after administration 12 min (end at 1440 min)): 74.7 beats per minute
- heart rate (healthy volunteers; time after administration 16 min): 74 beats per minute
- heart rate (healthy volunteers; time after administration 30 min): 76.8 beats per minute
- heart rate (healthy volunteers; time after administration 60 min): 73.1 beats per minute
- heart rate (healthy volunteers; time after administration 120 min): 70.2 beats per minute
- overshoot effect on heart rate (healthy volunteers; after termination of long term administration, hydrochloride): the heart rate and blood pressure raise immediately over control values; also recorded: significant tolerance and overshoot effect
- additive effect of raising the dose (tolerance state) (healthy volunteers; esmolol MD, HD): does not provide any additive effect
- heart rate effect during administration (healthy volunteers; long term administration): relative increase of the heart rate and blood pressure already after 60 minutes of administration
- tolerance effect (healthy volunteers; long term administration): significant tolerance and overshoot effect
- remark on heart rate response after infusion stop (healthy volunteers; remark column of Table 2, FU time points 20 h 6 min to 21 h): overshoot
- remark on heart rate response during infusion (healthy volunteers; remark column of Table 2, time points MD 60 min to HD 20 h (end)): Tolerance state
- time to resolution of hypotension symptoms [1]: ≤ 30 min
